Experimental data as given in US11478476B2 (CONTERA PHARMA APS, priority 2014, dated 2022).
Like-named read-outs stand apart in the source and are kept apart here.

Experiments:
PD model rats = assay: Stepping test (adjusting steps) in PD model rats; format: in vivo, rat; conditions: 6-OH-Busp 3 mg/kg, sc added to L-DOPA 10 mg/kg
Protocol: The stepping test (Schallert et al., 1992) was performed as described by Kirik et al., 2001 with little modifications. Briefly, the rat was held by the experimenter fixing its hindlimbs with one hand and the forelimb not to be monitored with the other, while the unrestrained forepaw was touching the table. The number of adjusting steps was counted, while the rat was moved sideways along the table surface (90 cm in 5 s), in the forehand and backhand direction, for both forelimbs, and the average of the steps in the two directions is considered.
30 male PD model rats were used for adjusting steps test with the following groups: • 1. Vehicle 1+Vehicle 2 (n=7) • 2. Vehicle 1+L-DOPA (10 mg/kg, sc) (n=7) • 3. 6-OH-Busp (3 mg/kg, sc)+Vehicle 2 (n=8) • 4. 6-OH-Busp (3 mg/kg, sc)+L-DOPA (10 mg/kg, sc)
The PD rats were handled for 3 consecutive days. Vehicle 1 or 6-OH-Busp will s.c. dosed 61 min before adjusting steps test. Vehicle 2 or L-DOPA/Benserazide dosed 60 min before adjusting steps test. On testing day, the rats were held by both hind limbs and the untested forepaw. The test forepaw was placed on a flat surface and dragged in the forehand direction for 90 cm distance over 5 s. The number of adjusting steps was counted for both paws in the backhand and forehand directions of movement. […] Data were analyzed and graphed by Graph Pad Prism 6.

[1] = biological target: human recombinant dopamine D2 receptor (Homo sapiens, UniProt P14416); conditions: saturating concentrations of dopamine; read-out: D2 efficacy IC50 ± SEM; cited from earlier work
[2] = human volunteers, cited from earlier work
[3] = biological target: T1, serotonin 5-HT1A receptor (Rattus norvegicus, UniProt P19327); conditions: rats, intravenous infusions to steady-state plasma levels, cited from earlier work
T1 construct: host or cells: rat brain in vivo (dorsal raphe, hippocampus)
T1 sequence (P19327 1-422): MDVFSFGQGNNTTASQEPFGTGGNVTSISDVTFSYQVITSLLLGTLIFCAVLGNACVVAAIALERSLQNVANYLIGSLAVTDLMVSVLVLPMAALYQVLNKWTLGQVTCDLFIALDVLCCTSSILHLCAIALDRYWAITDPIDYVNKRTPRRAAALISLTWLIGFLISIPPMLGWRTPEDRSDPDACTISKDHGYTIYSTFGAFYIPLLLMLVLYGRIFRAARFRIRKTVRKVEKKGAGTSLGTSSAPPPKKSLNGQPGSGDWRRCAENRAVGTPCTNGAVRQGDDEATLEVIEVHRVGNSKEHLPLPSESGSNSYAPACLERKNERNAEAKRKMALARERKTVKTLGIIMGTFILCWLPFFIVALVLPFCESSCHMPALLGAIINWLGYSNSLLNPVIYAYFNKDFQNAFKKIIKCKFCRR

[4] = oral administration of buspirone, analyte = label (6-OH-Busp: total, both enantiomers)
[5] = oral administration of racemic 6-OH-Busp, exposure of 6-OH-Busp

human recombinant dopamine D2 receptor, sequence (P14416 whole entry): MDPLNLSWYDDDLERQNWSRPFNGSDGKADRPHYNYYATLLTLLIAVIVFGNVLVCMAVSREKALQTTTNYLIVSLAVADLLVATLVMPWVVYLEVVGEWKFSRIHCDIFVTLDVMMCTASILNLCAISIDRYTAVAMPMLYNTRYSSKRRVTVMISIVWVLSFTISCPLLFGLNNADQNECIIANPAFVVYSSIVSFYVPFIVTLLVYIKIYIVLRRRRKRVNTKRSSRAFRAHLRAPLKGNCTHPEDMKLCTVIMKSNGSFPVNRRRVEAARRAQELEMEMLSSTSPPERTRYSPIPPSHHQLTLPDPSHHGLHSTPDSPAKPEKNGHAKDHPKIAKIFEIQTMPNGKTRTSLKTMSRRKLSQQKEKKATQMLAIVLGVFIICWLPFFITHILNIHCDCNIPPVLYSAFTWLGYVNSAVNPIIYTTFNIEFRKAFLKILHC

Question: With `O=C1CC2(CCCC2)C(O)C(=O)N1CCCCN1CCN(c2ncccn2)CC1` (racemic) [6-OH-Busp] as the compound, how does the “effect on adjusting steps of adding 6-OH-Busp to L-DOPA” value (PD model rats) read?
Answer: no significant different effect

Question: And the IC50 [1]?
Answer: 3.1 ± 1.8 µM

Question: And the “half-life (T½)” value ([2]; after administration of either parent buspirone or 6-OH-Busp)?
Answer: longer than that of buspirone

Question: What about the AUC0-INF [2, 4] of the same compound?
Answer: 52.93 ngxh/ml

Question: And the Cmax [2, 4]?
Answer: 9.12 ng/mL

Question: And the AUC0-INF [2, 5]?
Answer: 131.52 ngxh/ml

Question: And the Cmax [2, 5]?
Answer: 25.63 ng/mL

Question: What about the EC50 ([3]; dorsal raphe (presynaptic), read-out: 5-HT1A receptor occupancy EC50, dorsal raphe) of the same compound?
Answer: 1 ± 0.3 µM

Question: And the EC50 ([3]; hippocampus (postsynaptic), read-out: 5-HT1A receptor occupancy EC50, hippocampus)?
Answer: 4 ± 0.6 µM
